Assay results from US20250236616A1, “IMMUNOMODULATING AZALIDES” (Zoetis Services LLC, priority 2021, published 2025).

What was measured:
H. somni = experiment: MIC, H. somni strains; format: cell-based; details: lung isolates at necropsy, natural BRD study, n=25
Excerpt: Primary screening of the compounds of the invention included the evaluation of antibacterial activity of analogs through determination of microbial inhibition concentration (MIC) as per CLSI guidelines. The screening panel included the relevant BRD pathogens: 1) M. haemolytica (e.g., 12726, 46571 and 49023, all AHDRCC; and 33396 (ATCC)); and 2) P. multocida (e.g., 34135 and 46572 (both AHDRCC) and 43137 (ATCC)). In some instances, H. somni (A700025K) pathogens were also included in the screening panel. The AHDRCC strains originated from the Zoetis BRD/SRD surveillance program and refer to the Animal Health Development and Research Culture Collection. In addition, the screen assessed S. aureus (29213 ATCC) as a representative Gram-positive isolate, E.faecalis (19433 ATCC) as a commensal gram-positive gastrointestinal bacterium and E. coli (100, 3110 and 25922 (ATCC)) for the evaluation of efflux potential. The screening panel BRD pathogens were assessed in determining antibacterial activity of the Formula (1) compounds.
All relevant BRD pathogens were initially screened at a top concentration of 64 μg/mL of a Formula (1) compound in an eleven-point dilution series. […] If an Example was purified further, the MICs moved […] essentially two dilutions across all strains tested in the screening panel.
In-Vitro MIC Model Compounds were analyzed for antibacterial activity against a panel of animal health specific gram-positive and gram-negative clinical strains by diluting compounds in DMSO to an appropriate stock concentration to determine the Minimal Inhibitory Concentration (MIC) via a semi-automated broth micro-dilution method (CLSI reference method) with QC strains and anti-microbial agent(s). Specifically, bacteria were grown overnight on TSA w/5% sheep blood agar plates and diluted in saline buffer to a McFarland Standard 0.5, then further diluted in cation-ion adjusted Mueller Hinton Broth to a final concentration of approximately 5×10^5 CFU/mL. 100 μL of inoculated media was added to 96-well plate(s) with 3 μL of serially diluted compound in each row. Depending on strain (see CLSI reference method), bacteria were incubated 18-22 hours at 35-37° C. in ambient air, with 5% CO2 or anaerobically (up to 48 hours).

[1] = tested on: lung tissue gene expression, upstream regulators; experiment: Lung tissue RNA sequence analysis with ingenuity pathway analysis, murine P. multocida challenge; format: in vivo, mice; details: M9 32 mg/kg
Protocol: In one murine P. multocida intranasal challenge study, mice were administered tulathromycin (16 mg/kg; T02), M9 (32 mg/kg; T03), or ceftiofur (9 mg/kg; T04) by subcutaneous injection 18 hours after bacterial challenge (5×10^3 CFU/mouse) for lung tissue RNA sequence analysis. Survival at Day 7 was about 80%, 50%, and 90% for T02, T03, and T04, respectively, compared to placebo at 0%. Differential gene expression from total lung tissue RNA sequence analysis indicated at least 226 unique genes were up or down regulated (with significance) for T03. Output from ingenuity pathway analysis of these unique genes predicted major upstream regulators of the involved pathways. Data was analyzed based on the number of genes being modulated in the same direction that were associated with a given upstream regulator. An activation z-score of 2 or greater is considered significant and the direction change is indicated by + (activated) or -(inhibited). The top 5 pathways included: IL-9 signaling, glucocorticoid receptor signaling, prolactin signaling, JAK STAT signaling, and IL-17 signaling. The top 6 upstream regulators (activation z-score) included: lipopolysaccharide (−6.725), TNF (−4.669), IFNγ (−5.759), IL-1β (−5.947), STAT1 (−2.787), and poly rl: rC-RNA (−5.289). Even though this study was run in the murine model, the top upstream regulators identified as being modulated by M9 include an almost ubiquitous overlap with the pathways identified in the natural disease study as being key mediators in BRD, and therefore is modulating highly relevant pathways in BRD pathobiology.

[2] = tested on: natural bovine respiratory disease (BRD); experiment: Natural bovine respiratory disease study, treatment failure; format: in vivo, beef calves; details: dosed on arrival to the feedlot, 14-day observation
Protocol: The primary clinical endpoint for efficacy was treatment failure/success over a 14-day observation period. Clinically normal beef calves (150-200 kg) at moderate risk for BRD were dosed on arrival to the feedlot. Animals (N=114/group) received saline (T01), 5 mg/kg M9 (T02) or 10 mg/kg M9 (T03); or Zactran (T04).

[3] = tested on: M. haemolytica (strain: OSU-012103-BHI); experiment: Bovine M. haemolytica intratracheal lung challenge model, mortality; format: in vivo; details: 6 animals
Protocol: To evaluate immunomodulation effects and potential biomarkers, a bovine M. haemolytica (strain: OSU-012103-BHI) intratracheal lung challenge model study was completed utilizing M9 treatment in the presence and absence of bacterial challenge and a Draxxin® comparator. […] Animals were administered 0.05 mL/kg saline (T01), 10 mg/kg M9 (T02); Draxxin 2.5 mg/kg (T03) and 10 mg/kg M9 (T04) by subcutaneous injection on Day-1. Dose was based on body weight. Animals were challenge on Day 0 with the exception of T04. Blood was collected longitudinally throughout the study for biomarker evaluation panel (e.g., IL-6 and CD163) including two baseline samples prior to treatment. FIG. 4A depicts the area under the curve concentrations for IL-6 protein for individual animals against percent lung lesion scores and FIG. 4B depicts the CD163 fold change area under the curve for individual animals against percent lung lesion scores. Data is represented as percent lung lesion scores against the area under the curve (AUC) for IL-6 protein (immunoassay expressed in pg/mL) and CD163 (flow cytometric mean fluorescent intensity (MFI) in fold change from baseline). In both assays, a 2-fold change is typically considered to be relevant.

CCCNC[C@]1(O)[C@H](C)O[C@@H](O[C@H]2[C@H](C)[C@@H](O[C@@H]3O[C@H](C)C[C@H](NC)[C@H]3O)[C@](C)(O)C[C@@H](C)CN[C@H](C)[C@@H](O)[C@](C)(O)[C@@H](CC)OC(=O)[C@@H]2C)C[C@@]1(C)OC [Example M9, (2R,3S,4R,5R,8R,10R,11R,12S,13S,14R)-2-ethyl-3,4, 10-trihydroxy-13-(((2R,4R,5S,6S)-5-hydroxy-4-methoxy-4,6-dimethyl-5-((propylamino)methyl)-tetrahydro-2H-pyran-2-yl)oxy)-11-(((2S,3R,4S,6R)-3-hydroxy-6-methyl-4-(methylamino)tetrahydro-2H-pyran-2-yl)oxy)-3,5,8,10,12,14-hexamethyl-1-oxa-6-azacyclopentadecan-15-one]
MIC Range (H. somni): 8 to 64 µg/mL
unique genes up or down regulated (with significance) ([1]; total lung tissue RNA sequence analysis): at least 226
activation z-score, upstream regulator IFNγ ([1]; − = inhibited): −5.759
activation z-score, upstream regulator IL-1β ([1]; − = inhibited): −5.947
activation z-score, upstream regulator STAT1 ([1]; − = inhibited): −2.787
activation z-score, upstream regulator TNF ([1]; − = inhibited): −4.669
activation z-score, upstream regulator lipopolysaccharide ([1]; − = inhibited): −6.725
activation z-score, upstream regulator poly rl: rC-RNA ([1]; − = inhibited): −5.289
Percent failure ([2]; 5 mg/kg): 19.3%
Percent failure ([2]; 10 mg/kg): 8.8%
Mortality ([3]; M. haemolytica challenge Day 0, subcutaneous Day -1, M9 10 mg/kg, Draxxin 2.5 mg/kg): 1/6
Mortality ([3]; No challenge, M9 10 mg/kg subcutaneous Day -1): 0/6
